Results reported in patent publication US10781224B2, “Bis(oxymethyl)phosphinic acid and biogenic metal salts thereof as regulators of plant growth and development” (priority 2016, dated 2020).

How the values were obtained:
[1] = test system: winter wheat (Vershin variety); test: Winter wheat seed treatment with BHMPA salts: germinating power (length and mass of roots and sprouts); format: in vivo
Outline: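 Seeds (50 per Petri dish on two layers of filter paper) soaked 1 h in BHMPA or its Ca, Mg, Na, Co, Mn, Cu or Zn salts at 1·10^−6-1·10^−12%, with water controls. Germination energy read on day 4, germination on day 8 (wheat) or day 7 (rice, corn), as % means of four replicates. Germinating power taken as root and sprout length plus wet and dry mass per 100 seedlings.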

rice (Diamant variety) = test: Rice seed treatment with BHMPA salts: germination energy and germination rate; format: in vivo
Outline: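 Corn, winter wheat and rice seeds (50 per dish, on filter paper) were soaked for 1 h in BHMPA or its metal salts at 1·10^−6-1·10^−12%, with water as control. Germination energy was read on day 4 and germination rate on day 8 for wheat and day 7 for rice and corn, following GOST 12038-84, as the mean of four replicates.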

[2] = comparative study, 1·10^−9% solution
[3] = rice seed treatment, solution 1 · 10^−9%
[4] = seed treatment, concentration 1 · 10^−6%
[5] = seed treatment, concentration 1 · 10^−7%
[6] = seed treatment, concentration 1 · 10^−8%
[7] = seed treatment, concentration 1 · 10^−9%
[8] = seed treatment, concentration 1 · 10^−10%
[9] = seed treatment, concentration 1 · 10^−11%
[10] = seed treatment, concentration 1 · 10^−12%

O.O.O=P([O-])(CO)CO.O=P([O-])(CO)CO.[Mn+2] [Mn-salt, Manganese BHMPA Salt]
Length, root ([1]; 1·10^−6% solution): 2.8 cm
Length, root, + % to control ([1]; 1·10^−6% solution): −7%
Length, sprout ([1]; 1·10^−6% solution): 3.4 cm
Length, sprout, + % to control ([1]; 1·10^−6% solution): −5.5%
Mass, dry, root ([1]; 1·10^−6% solution): 0.32 g/100 plantlings
Mass, dry, root, + % to control ([1]; 1·10^−6% solution): −2%
Mass, dry, sprout ([1]; 1·10^−6% solution): 0.44 g/100 plantlings
Mass, dry, sprout, + % to control ([1]; 1·10^−6% solution): −10%
Mass, wet, root ([1]; 1·10^−6% solution): 1.38 g/100 plantlings
Mass, wet, root, + % to control ([1]; 1·10^−6% solution): −9%
Mass, wet, sprout ([1]; 1·10^−6% solution): 3.37 g/100 plantlings
Mass, wet, sprout, + % to control ([1]; 1·10^−6% solution): −6%
germinating power results vs control ([1]; 1·10^−6% solution): lower than those of the control
Length, root ([1]; 1·10^−7% solution): 3.8 cm
Length, root, + % to control ([1]; 1·10^−7% solution): 27%
Length, sprout ([1]; 1·10^−7% solution): 4.8 cm
Length, sprout, + % to control ([1]; 1·10^−7% solution): 33%
Mass, dry, root ([1]; 1·10^−7% solution): 0.50 g/100 plantlings
Mass, dry, root, + % to control ([1]; 1·10^−7% solution): 35%
Mass, dry, sprout ([1]; 1·10^−7% solution): 0.58 g/100 plantlings
Mass, dry, sprout, + % to control ([1]; 1·10^−7% solution): 18%
Mass, wet, root ([1]; 1·10^−7% solution): 1.74 g/100 plantlings
Mass, wet, root, + % to control ([1]; 1·10^−7% solution): 14.5%
Mass, wet, sprout ([1]; 1·10^−7% solution): 3.84 g/100 plantlings
Mass, wet, sprout, + % to control ([1]; 1·10^−7% solution): 7%
Length, root ([1]; 1·10^−8% solution): 4.4 cm
Length, root, + % to control ([1]; 1·10^−8% solution): 47%
Length, sprout ([1]; 1·10^−8% solution): 6.0 cm
Length, sprout, + % to control ([1]; 1·10^−8% solution): 67%
Mass, dry, root ([1]; 1·10^−8% solution): 0.53 g/100 plantlings
Mass, dry, root, + % to control ([1]; 1·10^−8% solution): 43%
Mass, dry, sprout ([1]; 1·10^−8% solution): 0.67 g/100 plantlings
Mass, dry, sprout, + % to control ([1]; 1·10^−8% solution): 37%
Mass, wet, root ([1]; 1·10^−8% solution): 2.09 g/100 plantlings
Mass, wet, root, + % to control ([1]; 1·10^−8% solution): 37.5%
Mass, wet, sprout ([1]; 1·10^−8% solution): 4.52 g/100 plantlings
Mass, wet, sprout, + % to control ([1]; 1·10^−8% solution): 25.5%
Length, root ([1]; 1·10^−9% solution): 4.6 cm
Length, root, + % to control ([1]; 1·10^−9% solution): 53%
Length, sprout ([1]; 1·10^−9% solution): 7.9 cm
Length, sprout, + % to control ([1]; 1·10^−9% solution): 119%
Mass, dry, root ([1]; 1·10^−9% solution): 0.62 g/100 plantlings
Mass, dry, root, + % to control ([1]; 1·10^−9% solution): 67.5%
Mass, dry, sprout ([1]; 1·10^−9% solution): 0.84 g/100 plantlings
Mass, dry, sprout, + % to control ([1]; 1·10^−9% solution): 71%
Mass, wet, root ([1]; 1·10^−9% solution): 3.00 g/100 plantlings
Mass, wet, root, + % to control ([1]; 1·10^−9% solution): 97%
Mass, wet, sprout ([1]; 1·10^−9% solution): 5.09 g/100 plantlings
Mass, wet, sprout, + % to control ([1]; 1·10^−9% solution): 41%
Length, root ([1]; 1·10^−10% solution): 4.5 cm
Length, root, + % to control ([1]; 1·10^−10% solution): 50%
Length, sprout ([1]; 1·10^−10% solution): 7.1 cm
Length, sprout, + % to control ([1]; 1·10^−10% solution): 97%
Mass, dry, root ([1]; 1·10^−10% solution): 0.57 g/100 plantlings
Mass, dry, root, + % to control ([1]; 1·10^−10% solution): 54%
Mass, dry, sprout ([1]; 1·10^−10% solution): 0.80 g/100 plantlings
Mass, dry, sprout, + % to control ([1]; 1·10^−10% solution): 63%
Mass, wet, root ([1]; 1·10^−10% solution): 2.16 g/100 plantlings
Mass, wet, root, + % to control ([1]; 1·10^−10% solution): 142%
Mass, wet, sprout ([1]; 1·10^−10% solution): 4.60 g/100 plantlings
Mass, wet, sprout, + % to control ([1]; 1·10^−10% solution): 28%
Length, root ([1]; 1·10^−11% solution): 4.4 cm
Length, root, + % to control ([1]; 1·10^−11% solution): 47%
Length, sprout ([1]; 1·10^−11% solution): 6.1 cm
Length, sprout, + % to control ([1]; 1·10^−11% solution): 69%
Mass, dry, root ([1]; 1·10^−11% solution): 0.52 g/100 plantlings
Mass, dry, root, + % to control ([1]; 1·10^−11% solution): 40.5%
Mass, dry, sprout ([1]; 1·10^−11% solution): 0.75 g/100 plantlings
Mass, dry, sprout, + % to control ([1]; 1·10^−11% solution): 53%
Mass, wet, root ([1]; 1·10^−11% solution): 1.90 g/100 plantlings
Mass, wet, root, + % to control ([1]; 1·10^−11% solution): 34%
Mass, wet, sprout ([1]; 1·10^−11% solution): 4.00 g/100 plantlings
Mass, wet, sprout, + % to control ([1]; 1·10^−11% solution): 11%
Length, root ([1]; 1·10^−12% solution): 3.6 cm
Length, root, + % to control ([1]; 1·10^−12% solution): 20%
Length, sprout ([1]; 1·10^−12% solution): 5.2 cm
Length, sprout, + % to control ([1]; 1·10^−12% solution): 44%
Mass, dry, root ([1]; 1·10^−12% solution): 0.40 g/100 plantlings
Mass, dry, root, + % to control ([1]; 1·10^−12% solution): 8%
Mass, dry, sprout ([1]; 1·10^−12% solution): 0.69 g/100 plantlings
Mass, dry, sprout, + % to control ([1]; 1·10^−12% solution): 31%
Mass, wet, root ([1]; 1·10^−12% solution): 1.52 g/100 plantlings
Mass, wet, root, + % to control ([1]; 1·10^−12% solution): 0%
Mass, wet, sprout ([1]; 1·10^−12% solution): 3.48 g/100 plantlings
Mass, wet, sprout, + % to control ([1]; 1·10^−12% solution): −3%
Length, root [1, 2]: 9.8 cm
Length, root, + % to control [1, 2]: 13%
Length, sprout [1, 2]: 6.7 cm
Length, sprout, + % to control [1, 2]: 8%
Mass, dry, root [1, 2]: 0.66 g/100 plantlings
Mass, dry, root, + % to control [1, 2]: 6%
Mass, dry, sprout [1, 2]: 0.55 g/100 plantlings
Mass, dry, sprout, + % to control [1, 2]: 8%
Mass, wet, root [1, 2]: 5.69 g/100 plantlings
Mass, wet, root, + % to control [1, 2]: 57%
Mass, wet, sprout [1, 2]: 4.97 g/100 plantlings
Mass, wet, sprout, + % to control [1, 2]: 25%
Germination energy, % (rice (Diamant variety); [3]): 86.7%
Germination rate, % (rice (Diamant variety); [3]): 93.0%
Germination energy (rice (Diamant variety); rice, 1·10^−9% solution): 85.3%
Germination rate (rice (Diamant variety); rice, 1·10^−9% solution): 91.7%
Germination energy (rice (Diamant variety); [4]): 77.0%
Germination rate (rice (Diamant variety); [4]): 82.7%
Germination energy (rice (Diamant variety); [5]): 79.3%
Germination rate (rice (Diamant variety); [5]): 85.0%
Germination energy (rice (Diamant variety); [6]): 82.7%
Germination rate (rice (Diamant variety); [6]): 86.7%
Germination energy (rice (Diamant variety); [7]): 85.3%
Germination rate (rice (Diamant variety); [7]): 91.7%
Germination energy (rice (Diamant variety); [8]): 83.3%
Germination rate (rice (Diamant variety); [8]): 88.3%
Germination energy (rice (Diamant variety); [9]): 81.0%
Germination rate (rice (Diamant variety); [9]): 86.0%
Germination energy (rice (Diamant variety); [10]): 78.0%
Germination rate (rice (Diamant variety); [10]): 83.0%
